Experimental data as given in PubChem BioAssay (NCI).
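Dose response: 5 concentrations. Exposure: 48 h. Format: 96-well plates. Endpoint: linear interpolation; highest concentration if not reached. TGI marks complete inhibition of growth.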

Experiments:
Test in all cases: NCI tumour cell line growth inhibition, 48 h
SF-295 CNS = system: SF-295 CNS
NCI-H23 lung = system: NCI-H23 lung
IGROV1 ovarian = system: IGROV1 ovarian
MCF7 breast = system: MCF7 breast
OVCAR-3 ovarian = system: OVCAR-3 ovarian
OVCAR-5 ovarian = system: OVCAR-5 ovarian
MDA-MB-231 breast = system: MDA-MB-231 breast
U251 CNS = system: U251 CNS
SF-268 CNS = system: SF-268 CNS
SK-OV-3 ovarian = system: SK-OV-3 ovarian
TK-10 renal = system: TK-10 renal
SF-539 CNS = system: SF-539 CNS
HS 578T breast = system: HS 578T breast
ACHN renal = system: ACHN renal
KM12 colon = system: KM12 colon
UACC-257 melanoma = system: UACC-257 melanoma
SW-620 colon = system: SW-620 colon
SK-MEL-2 melanoma = system: SK-MEL-2 melanoma
T-47D breast = system: T-47D breast
OVCAR-4 ovarian = system: OVCAR-4 ovarian
K-562 leukemia = system: K-562 leukemia
CAKI-1 renal = system: CAKI-1 renal
SN12C renal = system: SN12C renal
HOP-92 NSCLC = system: HOP-92 NSCLC
SNB-19 CNS = system: SNB-19 CNS
SK-MEL-28 melanoma = system: SK-MEL-28 melanoma
LOX IMVI melanoma = system: LOX IMVI melanoma
HOP-62 NSCLC = system: HOP-62 NSCLC
UACC-62 melanoma = system: UACC-62 melanoma
NCI-H460 lung = system: NCI-H460 lung
DU-145 prostate = system: DU-145 prostate
PC-3 prostate = system: PC-3 prostate
RPMI-8226 leukemia = system: RPMI-8226 leukemia
HL-60(TB) leukemia = system: HL-60(TB) leukemia
786-0 renal = system: 786-0 renal
EKVX NSCLC = system: EKVX NSCLC
SK-MEL-5 melanoma = system: SK-MEL-5 melanoma
BT-549 breast = system: BT-549 breast
SR leukemia = system: SR leukemia
COLO 205 colon = system: COLO 205 colon
M14 melanoma = system: M14 melanoma
HCT-15 colon = system: HCT-15 colon
NCI-H226 lung = system: NCI-H226 lung
OVCAR-8 ovarian = system: OVCAR-8 ovarian
MOLT-4 leukemia = system: MOLT-4 leukemia
HCC-2998 colon = system: HCC-2998 colon
NCI-H522 lung = system: NCI-H522 lung
MALME-3M melanoma = system: MALME-3M melanoma

O=c1cc(-c2ccccc2)[nH]c2ccc(N3CCCCC3)cc12
TGI (SF-295 CNS): 0.0474 µM | TGI (NCI-H23 lung): 6.86 µM | TGI (IGROV1 ovarian): > 100 µM | TGI (MCF7 breast): > 67.9 µM | TGI (OVCAR-3 ovarian): 2.89 µM | TGI (OVCAR-5 ovarian): > 100 µM | TGI (MDA-MB-231 breast): > 100 µM | TGI (U251 CNS): > 45.9 µM | TGI (SF-268 CNS): > 53.2 µM | TGI (SK-OV-3 ovarian): > 59.7 µM | TGI (TK-10 renal): > 100 µM | TGI (SF-539 CNS): 0.549 µM | TGI (HS 578T breast): > 100 µM | TGI (ACHN renal): > 100 µM | TGI (KM12 colon): 0.0909 µM | TGI (UACC-257 melanoma): > 100 µM | TGI (SW-620 colon): > 100 µM | TGI (SK-MEL-2 melanoma): > 100 µM | TGI (T-47D breast): > 100 µM | TGI (OVCAR-4 ovarian): > 100 µM | TGI (K-562 leukemia): > 100 µM | TGI (CAKI-1 renal): > 100 µM | TGI (SN12C renal): > 100 µM | TGI (HOP-92 NSCLC): 53.6 µM | TGI (SNB-19 CNS): > 100 µM | TGI (SK-MEL-28 melanoma): > 100 µM | TGI (LOX IMVI melanoma): > 100 µM | TGI (HOP-62 NSCLC): 47.4 µM | TGI (UACC-62 melanoma): > 100 µM | TGI (NCI-H460 lung): > 100 µM | TGI (DU-145 prostate): > 30.3 µM | TGI (PC-3 prostate): > 100 µM | TGI (RPMI-8226 leukemia): > 100 µM | TGI (HL-60(TB) leukemia): < 0.028 µM | TGI (786-0 renal): 43.1 µM | TGI (EKVX NSCLC): > 100 µM | TGI (SK-MEL-5 melanoma): 4.2 µM | TGI (BT-549 breast): > 100 µM | TGI (SR leukemia): > 100 µM | TGI (COLO 205 colon): > 100 µM | TGI (M14 melanoma): > 100 µM | TGI (HCT-15 colon): > 100 µM | TGI (NCI-H226 lung): 0.0706 µM | TGI (OVCAR-8 ovarian): > 44.9 µM | TGI (MOLT-4 leukemia): > 100 µM | TGI (HCC-2998 colon): > 22.5 µM | TGI (NCI-H522 lung): > 100 µM | TGI (MALME-3M melanoma): > 100 µM
